How the values were obtained:
INS-1 cells = assay: Insulin secretion assay in INS-1 cells (glucose at 4.2 mM); assay type: cell-based, rat; conditions: 1 h incubation; for activity at 10 µM: Rattus norvegicus, INS1, glucose 4.2 mM, compound 10 μm, read-out: Insulin secretion, % of ctrl at 10 μm of cpd; for Insulin secretion, % of ctrl at 50 μm of cpd: glucose 4.2 mM, compound 50 μm
Method: INS-1 cells were cultured in complete medium, RPMI1640 containing 1 mM sodium pyruvate, 50 μM 2-mercaptoethanol, 2 mM glutamine, 10 mM HEPES, 100 IU/mL penicillin, and 100 μg/mL streptomycin (CM), supplemented with 10 mM glucose, and 10% (vol/vol) heat-inactivated fetal […] (FCS), as described by Asfari et al. (Endocrinology 130: 167-178, 1992).
INS-1 cells were plated and cultured in 48-well plates. After 2 days of culture, the medium was removed and cells were cultured for 24 h with a medium change to 5 mM glucose, 1% FCS. The cells were then washed with Krebs-Ringer Bicarbonate HEPES buffer (KRBH; 135 mM NaCl; 3.6 mM KCl; 5 mM NaHCO3; 0.5 mM NaH2PO4; 0.5 mM MgCl2; 1.5 mM CaCl2 and 10 mM HEPES; pH 7.4) 0.1% BSA containing 2.8 mM glucose and preincubated for 30 min at 37° C. in the same buffer. The cells were then washed twice and incubated for 1 h in KRBH 0.1% BSA containing 4.2 mM glucose and different concentrations of the tested molecule. Insulin concentration in the collected supernatants was measured with ELISA using rat insulin antibody (Insulin Rat Elit PLUS, cat, ref 10-1145-01).
Insulin secretion results are expressed in % of control (glucose 4.2 mM).

[1] = test system: diabetic N0STZ rat islets; assay: Insulin secretion in diabetic N0STZ rat islets; assay type: cell-based; conditions: 90 min, Means±SEM
Method: 14±3 weeks non-fasted N0STZ (PORTHA et al., 1974) male rats (Charles Rivers-Domaine des Oncins, I'Arbresle, France) were anesthetized with sodium pentobarbital (Nembutal®: 45 mg/kg in 5 ml/kg administered intra peritoneally) and body temperature was maintained with a heat lamp.
Rat pancreatic islets of Langerhans were isolated from the pancreas of 8 rats by collagenase P (Boehringer, Meylan, France) digestion. Islets were purified by sedimentation in Hanks balanced salt solution [NaCl (137 mM); KCl (5.36 mM); MgSO4, 7 H2O (0.81 mM); Na2HPO4, 12 H2O (0.34 mM); KH2PO4 (0.44 mM); CaCl2, 2 H2O (1.26 mM); NaHCO3 (4.17 mM)] followed by Ficoll gradient separation. Islets were then hand-picked under stereoscopic microscope and batches of 3 islets were incubated for 90 minutes at 37° C. with continuous shaking under a humidified condition ([…], 5% CO2) in 1 ml of Krebs/Hepes pH 7 solution [NaCl (115 mM), NaHCO3 (24 mM), KCl (5 mM), MgCl2 (1 mM), CaCl2, 2 H2O (1 mM), 0.2% of Bovine serum albumin (Fraction V, fatty acid free, Boehringer, Mannheim), 10 mM Hepes] containing the required glucose or compound concentration. Compounds were dissolved in DMSO at 2.10-2M stock solutions. They were then diluted at the required concentration in Krebs/Hepes buffer containing the required glucose concentration.
At the end of incubation, media was collected and insulin levels were measured using ELISA (EUROBIO, Courtaboeuf, France).
Islets were hand-picked and incubated in the presence of increasing concentrations of compounds in the presence of glucose at 2.8 or 8 mM. At the end of incubation, media was collected and insulin levels were measured using ELISA method. Results are expressed as % of glucose control (2.8 or 8 mM) and represent Means±SEM.

[2] = glucose 2.8 mM, compound 10−4 M

| Compound | activity at 10 µM (INS-1 cells) [%] | Insulin secretion, % of ctrl at 50 μm of cpd (INS-1 cells) | also measured |
| --- | --- | --- | --- |
| CCn1c(=O)c(-c2ccccc2)nc2cccnc21 [Example 3-4, 4-ethyl-2-phenylpyrido[2,3-b]pyrazin-3(4H)-one] | 226 | 302 % of ctrl |  |
| O=c1c(-c2ccc(F)cc2)nc2cccnc2n1CC1CC1 [Example 3-7, 4-cyclopropylmethyl-2-(4-fluorophenyl)pyrido[2,3-b]pyrazin-3(4H)-one] | 208 | 221 % of ctrl | Insulin secretion, % of glucose control [1, 2]: 84 ± 10 % of glucose control; Insulin secretion, % of glucose control ([1]; glucose 8 mM, compound 10−4 M): 228 ± 12 % of glucose control; Insulin secretion, % of glucose control ([1]; glucose 8 mM, compound 10−5 M): 210 ± 9 % of glucose control; Insulin secretion, % of glucose control ([1]; glucose 8 mM, compound 10−6 M): 149 ± 9 % of glucose control; Insulin secretion, % of glucose control ([1]; glucose 8 mM, compound 10−7 M): 124 ± 7 % of glucose control |
| Cc1cc(F)ccc1-c1nc2cccnc2n(C2CC2)c1=O [Example 6-2, 4-cyclopropyl-2-(4-fluoro-2-methylphenyl)pyrido[2,3-b]pyrazin-3(4H)-one] |  |  | melting point: 165 to 167 °C |
| CCn1c(=O)c(-c2ccc(Cl)cc2)nc2cccnc21 [Example 3-2, 2-(4-chlorophenyl)-4-ethylpyrido[2,3-b]pyrazin-3(4H)-one] | 240 | 263 % of ctrl |  |
| O=c1c(-c2ccc(Cl)cc2)nc2cccnc2n1CC(F)F [Example 3-8, 2-(4-chlorophenyl)-4-(2,2-difluoroethyl)pyrido[2,3-b]pyrazin-3(4H)-one] | 273 |  |  |
| O=c1c(-c2ccc(Cl)cc2)nc2cccnc2n1CC1CC1 [Example 3, 2-(4-chlorophenyl)-4-cyclopropylmethylpyrido[2,3-b]pyrazin-3(4H)-one] | 241 | 398 % of ctrl | Insulin secretion, % of glucose control [1, 2]: 85 ± 8 % of glucose control; Insulin secretion, % of glucose control ([1]; glucose 8 mM, compound 10−4 M): 168 ± 7 % of glucose control; Insulin secretion, % of glucose control ([1]; glucose 8 mM, compound 10−5 M): 145 ± 9 % of glucose control; Insulin secretion, % of glucose control ([1]; glucose 8 mM, compound 10−6 M): 110 ± 7 % of glucose control; Insulin secretion, % of glucose control ([1]; glucose 8 mM, compound 10−7 M): 100 ± 7 % of glucose control |
| O=c1c(-c2ccc(Cl)cc2)nc2cccnc2n1C1CC1 [Example 3-5, 2-(4-chlorophenyl)-4-cyclopropylpyrido[2,3-b]pyrazin-3(4H)-one] | 418 | 610 % of ctrl |  |
| COCCn1c(=O)c(-c2ccc(F)cc2)nc2cccnc21 [Example 3-16, 2-(4-fluorophenyl)-4-(2-methoxyethyl)pyrido[2,3-b]pyrazin-3(4H)-one] | 254 |  | melting point: 124 to 127 °C |
| O=c1c(-c2ccc(F)cc2)nc2cccnc2n1C1CC1 [Example 3-6, 4-cyclopropyl-2-(4-fluorophenyl)pyrido[2,3-b]pyrazin-3(4H)-one] | 231 | 255 % of ctrl |  |
| Cc1ccnc2c1nc(-c1ccc(Cl)cc1)c(=O)n2C1CC1 [Example 3-13, 2-(4-chlorophenyl)-4-cyclopropyl-8-methylpyrido[2,3-b]pyrazin-3(4H)-one] |  |  | melting point: 159 to 163 °C |
| CC(C)n1c(=O)c(-c2ccc(Cl)cc2)nc2cccnc21 [Example 3-18, 2-(4-chlorophenyl)-4-isopropyl-pyrido[2,3-b]pyrazin-3(4H)-one] | 338 |  |  |
| CCn1c(=O)c(-c2ccc(F)cc2)nc2cccnc21 [Example 3-3, 2-(4-fluorophenyl)-4-ethylpyrido[2,3-b]pyrazin-3(4H)-one] | 235 | 251 % of ctrl |  |

— patent US8609689B2, “Pyridopyrazinones derivatives insulin secretion stimulators, methods for obtaining them and use thereof for the treatment of diabetes” (Merck Patent GmbH, priority 2008, dated 2013)
